Laboratory results: article PMC5242521 (PLoS ONE, 2017)

Columns and labels:
[1] = target: T1, OATP2B1 (Homo sapiens, UniProt O94956); experiment: OATP2B1 activity: E3S accumulation in HEK-OATP2B1 cells; settings: for effect on OATP2B1 activity: pyrethroid 100 μM
T1 sequence (O94956 1-709): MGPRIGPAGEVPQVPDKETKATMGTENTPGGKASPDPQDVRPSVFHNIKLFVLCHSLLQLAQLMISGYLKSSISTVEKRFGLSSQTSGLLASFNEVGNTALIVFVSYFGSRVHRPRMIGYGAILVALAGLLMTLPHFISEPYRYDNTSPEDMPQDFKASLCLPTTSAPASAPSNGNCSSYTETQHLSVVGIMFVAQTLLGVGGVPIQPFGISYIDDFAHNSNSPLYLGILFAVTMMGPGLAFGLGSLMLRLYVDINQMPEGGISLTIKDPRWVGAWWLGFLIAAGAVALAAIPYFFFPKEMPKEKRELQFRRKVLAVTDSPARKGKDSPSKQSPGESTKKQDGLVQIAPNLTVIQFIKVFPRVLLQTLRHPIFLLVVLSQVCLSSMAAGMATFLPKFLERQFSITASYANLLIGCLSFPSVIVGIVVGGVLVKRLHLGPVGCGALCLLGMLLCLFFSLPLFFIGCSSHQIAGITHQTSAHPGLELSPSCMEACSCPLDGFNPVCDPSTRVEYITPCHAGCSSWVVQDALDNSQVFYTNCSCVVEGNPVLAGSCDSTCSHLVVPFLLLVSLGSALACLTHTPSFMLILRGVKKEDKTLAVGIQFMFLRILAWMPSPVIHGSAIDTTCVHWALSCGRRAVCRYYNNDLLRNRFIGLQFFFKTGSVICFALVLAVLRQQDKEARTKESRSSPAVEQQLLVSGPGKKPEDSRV
Protocol: (§1) The effects of pyrethroids on activity of ABC and SLC transporters were determined through measuring cellular accumulation or retention of fluorescent or radiolabeled reference substrates for transporters, in the presence or absence of reference inhibitors, as previously described. The nature of cells and reference substrates and inhibitors used for transport assays are summarized in S3 Table.
(§2) The nature of substrates and reference inhibitors and the incubation times with substrates, that varied according to the transporter, were selected in agreement with previous studies and are indicated in S3 Table. The total incubation volume with substrates was 200 μL/well. […] An aliquot of cell lysate (5 μL) was then taken for determining cellular protein content by the Bradford method.
(§3) Intracellular concentrations of reference substrates were initially expressed as fluorescence arbitrary units (for fluorescent dye substrates) or as moles (for radiolabeled substrates) and normalized to cellular protein content, determined by the Bradford method. They were finally used for calculating percentage of transporter activity, according to the following equations [41, 45]: %ABCtransporter activity=([Substrateref inh]-[Substratepyrethroid])×100/([Substrateref inh]-[Substratecontrol]) (1) %SLC transporter activity=([Substratepyrethroid]-[Substratref inh])×100/([Substratecontrol]-[Substrateref inh]) (2) with [Substratepyrethroid] = cellular concentration of reference substrate in the presence of pyrethroid, [Substrateref inh] = cellular concentration of reference substrate in the presence of reference inhibitor and [Substratecontrol] = cellular concentration of reference substrate in control cells not exposed to pyrethroid or reference inhibitor.
(§4) The initial tested concentration of pyrethroids was 100 μM. […] Such concentrations were calculated using GraphPad Prism software (GraphPad Software, La Jolla, CA), through nonlinear regression based on the four parameter logistic function using the following equations: […]

[2] = target: T2, OCT1 (Homo sapiens, UniProt O15245); experiment: OCT1 activity: DAPI accumulation in HEK-OCT1 cells; settings: for effect on OCT1 activity: pyrethroid 100 μM; for effect on OCT1 activity / IC50: DAPI; for IC50: IC50 for OCT1 inhibition, HEK-OCT1 cells; for inhibition at 100 μM: human, pH 7.4
T2 sequence (O15245 1-554): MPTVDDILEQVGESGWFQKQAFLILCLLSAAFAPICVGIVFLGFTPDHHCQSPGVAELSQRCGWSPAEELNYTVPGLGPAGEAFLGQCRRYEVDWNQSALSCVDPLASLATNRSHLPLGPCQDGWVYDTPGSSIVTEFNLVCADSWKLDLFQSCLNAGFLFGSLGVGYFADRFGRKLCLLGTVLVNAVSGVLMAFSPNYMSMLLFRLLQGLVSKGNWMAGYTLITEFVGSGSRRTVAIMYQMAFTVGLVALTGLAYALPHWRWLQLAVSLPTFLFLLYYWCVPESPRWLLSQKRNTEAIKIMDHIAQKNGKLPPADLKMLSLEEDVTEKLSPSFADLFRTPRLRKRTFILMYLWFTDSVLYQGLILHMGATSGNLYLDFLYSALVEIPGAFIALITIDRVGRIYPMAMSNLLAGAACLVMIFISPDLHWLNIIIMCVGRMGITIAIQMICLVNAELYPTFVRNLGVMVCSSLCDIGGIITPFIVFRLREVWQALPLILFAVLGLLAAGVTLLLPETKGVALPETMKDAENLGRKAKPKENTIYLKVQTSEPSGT
Protocol: as §1, §2, §3, §4

[3] = target: T3, OCT2 (Homo sapiens, UniProt O15244); experiment: OCT2 activity: rhodamine 123 accumulation in HEK-OCT2 cells; settings: for effect on OCT2 activity: pyrethroid 100 μM
T3 sequence (O15244 1-555): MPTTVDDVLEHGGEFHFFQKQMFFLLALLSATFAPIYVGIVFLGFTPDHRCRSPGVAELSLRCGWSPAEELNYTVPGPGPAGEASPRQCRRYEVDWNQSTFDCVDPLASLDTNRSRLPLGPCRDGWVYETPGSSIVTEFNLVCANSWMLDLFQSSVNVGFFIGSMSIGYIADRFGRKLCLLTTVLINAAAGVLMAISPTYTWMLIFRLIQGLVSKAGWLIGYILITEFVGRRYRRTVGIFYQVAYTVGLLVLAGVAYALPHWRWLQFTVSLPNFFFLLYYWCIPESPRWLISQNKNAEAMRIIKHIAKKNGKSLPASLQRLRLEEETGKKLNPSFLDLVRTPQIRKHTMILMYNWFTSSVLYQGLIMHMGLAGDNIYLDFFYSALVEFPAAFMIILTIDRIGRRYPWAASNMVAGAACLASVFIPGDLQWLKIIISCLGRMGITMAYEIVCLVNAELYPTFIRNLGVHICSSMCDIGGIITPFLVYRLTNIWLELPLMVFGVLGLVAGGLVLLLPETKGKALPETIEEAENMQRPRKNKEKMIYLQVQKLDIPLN
Protocol: as §1, §2, §3, §4

SMILES | effect on OATP2B1 activity [1] | effect on OCT1 activity [2] | effect on OCT2 activity [3] | EC50 [1] | IC50 [2] | inhibition at 100 μM [2] | IC50 [3]
C#CCN1CC(=O)N(COC(=O)[C@@H]2C(C=C(C)C)C2(C)C)C1=O (mixture of isomers) [imiprothrin] | cis-stimulated | markedly inhibited | inhibited | – | – | – | –
C=CCC1=C(C)C(OC(=O)C2C(C=C(C)C)C2(C)C)CC1=O (centres unmarked) [allethrin] | cis-stimulated | – | markedly inhibit | 37.8 µM | 2.6 µM | 87.9% | 42.6 µM
C#CCC1=C(C)C(OC(=O)C2C(C=C(C)C)C2(C)C)CC1=O (centres unmarked) [prallethrin] | cis-stimulated | markedly inhibited | inhibited | – | – | – | –
CC(C)=CC1C(C(=O)OCN2C(=O)C3=C(CCCC3)C2=O)C1(C)C (centres unmarked) [tetramethrin] | – | – | markedly inhibit | 10.1 µM | 4.9 µM | 73.8% | 11.2 µM
